Experimental data as given in patent US20240076667A1, “APPLICATION OF ANTISENSE OLIGONUCLEOTIDE TARGETING PBX1 PROMOTER REGION G-QUADRUPLEX IN PREPARATION OF MEDICINE FOR TREATING MELANOMA” (JILIN UNIVERSITY, priority 2022, published 2024).

Experiments:
A375 melanoma cells = test: In vivo tumor growth experiment, A375 xenograft in nude mice
Method: In vivo tumor growth experiment: to evaluate the effect of PBX1 on growth of in vivo tumors, before inoculation, male nude mice of 6 weeks (BALB/C background) are randomly divided into designated groups (5 per group). 1×10^6 A375 melanoma cells are injected subcutaneously into the upper flank of the back of each mouse. After injection, the mice are administered with PDS drug for treatment for 21 days (once every two days), and after the mice are sacrificed, the tumor weight is measured.
(§1) Bioluminescent tumor cell tracking: in vivo whole-animal imaging, anesthetized mice are injected intraperitoneally with 3 mg of d-luciferin (MCE, USA). Luminescence data is collected on an IVIS system (Perkin Elmer, USA). For live tissue imaging, tissues are perfused with PBS, harvested, and incubated in PBS with 1 μg/ml-1d-luciferin. Data analysis is performed using an IVIS Image software package.

B16-F10 cells = test: In vivo tumor metastasis assay, B16-F10 tail vein injection; set-up: species or system mice; details: B16-F10 tail vein; PDS 5 mg/kg twice a day, 16 consecutive days
Method: In vivo tumor metastasis assay: 2×10^5 B16-F10 cells are injected into the tail vein of tail vein tumor. According to solutions formulated by the NCI Animal Care and Use Committee, metastatic endpoints are determined for each experiment by maximal primary tumor burden and/or appearance of moribund mice in all treatment groups. PDS (5 mg/kg) is administered twice a day, for 16 consecutive days.
as §1

NCCOc1cc(C(=O)Nc2cc(OCCN)c3ccccc3n2)nc(C(=O)Nc2cc(OCCN)c3ccccc3n2)c1 [PDS, Pyridostatin]
growth of xenograft tumors (A375 melanoma cells; A375 subcutaneous, nude mice, treatment 21 days once every two days): remarkably inhibits
expression of PBX1 in xenograft tumors (A375 melanoma cells; qRT-PCR and IHC staining): downregulating
metastasis of xenograft tumors (lung) (B16-F10 cells): remarkably inhibits
